The source of these data is patent US11471674B2, “Electroosmotic convection-enhanced delivery system” (University of Pittsburgh—Of the Commonwealth System of …, priority 2012, dated 2022).

Data set [1] is described as follows: Electrophoretic mobility of infusates. In kind it is physicochemical. To be noted: N = 3. The text has this:
As noted above, three solutes of varying molecular weight and electrophoretic mobilities were utilized for in vivo infusions. BODIPY labeled 10 kDa dextran (B10) and TR70 were selected because of their dissimilar molecular weights, their ability to be resolved spectroscopically, and their small electrophoretic mobilities, as shown in Table 1 below (Vd at 10% of I0 calculated as in paragraph 25). The electrophoretic mobility is the ratio of the velocity that a molecule adopts in the presence of an electric field of a particular magnitude. For comparison, the electroosmotic mobility is the velocity that the fluid adopts in the presence of an electric field. The […] is directly proportional to the magnitude of the zeta potential governing the electroosmotic flow which we estimate to be −22.8 mV (Guy, Y. et al., “Determination of zeta-potential in rat organotypic hippocampal cultures.” Biophysical Journal, (2008) 94: 4561-9; Guy et al., “Determination of Zeta-Potential and Tortuosity in Rat Organotypic Hippocampal Cultures from Electroosmotic Velocity Measurements under Feedback Control.” Anal. Chem. (2009) 81:3001-7, both of which are hereby incorporated by reference). The electroosmotic mobility of the extracellular fluid in brain is 1.7×10^−8 m^2/Vs. This is much larger than the electrophoretic mobilities of the two fluorescent dextrans in Table 1. […]

Data set [2] is described as follows: In vivo electrokinetic infusion via hollow fiber probe, volume of distribution. To be noted: rat striatum, 25 μA, 45 minutes. The text has this: In the experiments described below, the distal end of the hollow fiber catheter was a hollow fiber having a 280 μm inside and 360 μm outside diameter, and a length of 3-4 mm (724). A 10- or 15-cm long fused silica catheter ([…] and 670 μm outside diameters, 720) directs fluid to the hollow fiber probe. The 100 μm inside diameter infusion catheter 720 was filled with the fluorophore solution of interest, as detailed below, in a glucose-free HEPES-buffered salt solution (GF-HBSS), containing in mM: 143.4 NaCl, 5 HEPES, 5.4 KCl, 1.2 MgSO4, 1.2 NaH2PO4, and 2.0 CaCl2. The probe was placed in a vial containing the same solution (704) through a septum. […]
After the electrokinetic infusion period, the rats underwent rapid transcardial perfusion with 250 mL of 8% cold paraformaldehyde in phosphate buffer solution. […] Vibratome sectioning was quantitative, with no discarded tissue between slices with a visible fluorophore spot. […] The 200 μm thick coronal slices were mounted onto glass slides and imaged with an inverted fluorescence microscope.
The volumes of distribution from the infusions were determined by measuring the fluorescence intensities in each coronal slice. The fluorescent area in each image was determined by counting pixels above a threshold value dictated by the noise level in the background (nonfluorescent portion of the image). […]

A short description of data set [3]: In vivo electrokinetic infusion via open tube catheter, volume of distribution. To be noted: rat thalamus, 25.0 μA for 45 minutes. On the procedure:
Male Sprague-Dawley rats, with weights ranging from 260 to 290 g, were anesthetized with isoflurane, and wrapped in a 37° C. homeothermic blanket. An incisor bar was set at 0 mm at the interaural line. Rats underwent aseptic stereotactic surgery, whereby bilateral craniotomies were made to position an infusion catheter and counter catheter into the thalami bilaterally (from bregma: 4.0 mm lateral, 1.3 mm posterior, and 5.0 mm below the dura) for volumetric analysis. The capillaries were also implanted into the hippocampi bilaterally (from bregma: 4.0 mm lateral, 1.3 mm posterior, and 2.5 mm below the dura). […]
After the electrokinetic infusion period, the rats underwent rapid transcardial perfusion with 250 mL of 8% cold paraformaldehyde in PBS. […] Vibratome sectioning was quantitative, with no discarded tissue between slices with a visible fluorophore spot. […] The 300 μm thick coronal slices were mounted onto glass slides and imaged with an inverted fluorescence microscope. Image sequences were acquired and the fluorescent intensity was measured.
The volumes of distribution from the infusions were determined by evaluating the fluorescence intensities amongst the coronal tissue slices. The overall maximum fluorescence intensity (I0) at the infusion catheter implantation site was determined for each rat. […]

As usually defined, the Vd is a proportionality between amount in the body and measured concentration, not a real space. `[Ru+2].c1ccc(-c2ccccn2)nc1.c1ccc(-c2ccccn2)nc1.c1ccc(-c2ccccn2)nc1` [Ru(bpy)3^2+, tris(2,2′-bipyridyl)ruthenium(II)]: the “Electrophoretic Mobility (μep)” value in data set [1] was 25.86 ± 0.02 10^−9 m^2/Vs. In addition, the “volume of distribution (fluorescent volume)” value in data set [2] was 9.0 µL. Moreover, the “Vd at 10% of I0” value in data set [3] (calculated) is 260 µL. Besides, in data set [3] (open tube catheter, mean±SEM), the “Vd at 25% of I0” value is 13.0 ± 2.0 µL.
